Patent US20240190876A1, “Tricyclic Urea Compounds As JAK2 V617F Inhibitors” (Incyte Corporation, priority 2022, published 2024)

Experiments:
KIT [1] = test: KIT Enzymatic Assay; type: biochemical; settings: ratio KIT IC50 / JH2 V617F binding IC50
Protocol: (§1) The kinase assays were carried out at room temperature in assay buffer (HEPES 50 mM, pH 7.0, NaN3 0.02%, BSA 0.01%, Orthovanadate 0.1 mM, DTT 1 mM, MgCl2 10 mM) in a final volume of 10 μL. Testing compounds were prepared by serial dilution in DMSO and transferred to the plate wells by ECHO liquid handler (Labcyte) with 0.5% DMSO in the final assay. […]. Reactions were initiated by the addition of 5 μL ATP in assay buffer. The final 10 μL kinase reaction consists of 0.12 nM KIT, 1 mM ATP, 500 nM TK Substrate-biotin and SEB reagent 62.5 nM in assay buffer. […] The plates were then sealed and centrifuged at 1800 rpm for 2 minutes. After 60 minutes incubation at room temperature, the product activity was determined by measuring the fluorescence at 620 nm and 665 nm on Pherastar microplate reader (BMG Labtech). A ratio is calculated (665/620 nm) for each well. Wells with DMSO only were served as the positive controls and wells containing no ATP were used as negative controls. IC50 determination was performed by fitting the curve of percent control activity versus the log of the compound concentration using the GraphPad Prism 7.0 software.

FLT3 [2] = test: FLT3 Enzymatic Assay; type: biochemical; settings: ratio FLT3 IC50 / JH2 V617F binding IC50
Protocol: as §1, with “0.011” for “0.12”, “FLT3,” for “KIT,”

FLT3 [3] = biological target: T1, FLT3 (Homo sapiens, UniProt P36888); test: FLT3 Enzymatic Assay; type: biochemical; settings: HTRF kinase assay, 1 mM ATP
T1 sequence (P36888 27-993): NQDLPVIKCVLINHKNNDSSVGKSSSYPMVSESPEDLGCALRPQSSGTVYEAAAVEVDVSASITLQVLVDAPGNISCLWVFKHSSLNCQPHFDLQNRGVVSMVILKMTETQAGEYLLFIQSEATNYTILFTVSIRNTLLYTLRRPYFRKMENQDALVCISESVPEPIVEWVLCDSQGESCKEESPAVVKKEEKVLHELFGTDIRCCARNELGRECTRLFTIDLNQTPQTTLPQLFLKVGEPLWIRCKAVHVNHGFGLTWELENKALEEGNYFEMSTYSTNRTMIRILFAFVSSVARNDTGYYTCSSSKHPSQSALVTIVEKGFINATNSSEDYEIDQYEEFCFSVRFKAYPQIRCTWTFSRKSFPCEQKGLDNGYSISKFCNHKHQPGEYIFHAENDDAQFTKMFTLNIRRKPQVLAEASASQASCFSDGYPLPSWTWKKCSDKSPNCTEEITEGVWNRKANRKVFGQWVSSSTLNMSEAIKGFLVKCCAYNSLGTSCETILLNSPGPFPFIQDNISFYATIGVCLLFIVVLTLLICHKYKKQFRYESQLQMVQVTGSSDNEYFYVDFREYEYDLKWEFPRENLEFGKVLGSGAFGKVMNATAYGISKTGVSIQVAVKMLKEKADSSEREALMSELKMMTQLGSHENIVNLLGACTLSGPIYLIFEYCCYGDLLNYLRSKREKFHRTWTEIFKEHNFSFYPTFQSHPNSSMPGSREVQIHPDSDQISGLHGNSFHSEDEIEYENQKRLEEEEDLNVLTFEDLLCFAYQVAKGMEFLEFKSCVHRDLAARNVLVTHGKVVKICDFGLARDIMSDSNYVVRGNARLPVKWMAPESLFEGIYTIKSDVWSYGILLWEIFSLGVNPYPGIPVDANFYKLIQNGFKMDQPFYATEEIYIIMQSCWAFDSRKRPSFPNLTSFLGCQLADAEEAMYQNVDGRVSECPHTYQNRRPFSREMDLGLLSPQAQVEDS
Protocol: as §1, with “0.011” for “0.12”, “FLT3,” for “KIT,”

[4] = In Vitro Intrinsic Clearance; type: in vitro ADME; settings: human liver microsomes, 1 μM compound, NADPH, scaled to human
Protocol: For in vitro metabolic stability experiments, test compounds were incubated with human liver microsomes at 37° C. The incubation mixture contained test compounds (1 μM), NADPH (2 mM), and human liver microsomes ([…]) in 100 mM phosphate buffer (pH 7.4). The mixture was pre-incubated for 2 min at 37° C. before the addition of NADPH. Reactions were commenced upon the addition of NADPH and quenched with ice-cold methanol at 0, 10, 20, and 30 min. Terminated incubation mixtures were analyzed using LC-MS/MS system. The analytical system consisted of a Shimadzu LC-30AD binary pump system and SIL-30AC autosampler (Shimadzu Scientific Instruments, Columbia, MD) coupled with a Sciex Triple Quad 6500+mass spectrometer from Applied Biosystems (Foster City, CA). […] Mobile phase A consisted of 0.1% formic acid in water, and mobile phase B consisted of 0.1% formic acid in acetonirile. The total LC-MS/MS runtime was 2.75 minutes with a flow rate of 0.75 mL/min. Peak area integrations and peak area ratio calculations were performed using Analyst software (version 1.6.3) from Applied Biosystems.
The in vitro intrinsic clearance, CLint, in vitro, was calculated from the t1/2 of test compound disappearance as CLint, in vitro=(0.693/t1/2)×(1/Cprotein), where Cprotein is the protein concentration during the incubation, and t1/2 was determined by the slope (k) of the log-linear regression analysis of the concentration versus time profiles; thus, t1/2ln2/k. The CLint, in vitro values were scaled to the in vivo values for human by using physiologically based scaling factors, hepatic microsomal protein concentrations (45 mg protein/g liver), and liver weights (21 g/kg body weight). The equation CLint=CLint, in vitro×(mg protein/g liver weight)×(g liver weight/kg body weight) was used. The in vivo hepatic clearance (CLH) was then calculated by using CLint and hepatic blood flow, Q (20 mL·min^−1kg^−1 in humans) in the well-stirred liver model disregarding all binding from CLH (Q×CLint)/(Q+CLint). The hepatic extraction ratio was calculated as CLH divided by Q.

KIT [5] = biological target: KIT (Homo sapiens, UniProt P10721); test: KIT Enzymatic Assay; type: biochemical; settings: HTRF kinase assay, 1 mM ATP
Chain of KIT (Homo sapiens, UniProt P10721) (P10721 26-976, species assumed): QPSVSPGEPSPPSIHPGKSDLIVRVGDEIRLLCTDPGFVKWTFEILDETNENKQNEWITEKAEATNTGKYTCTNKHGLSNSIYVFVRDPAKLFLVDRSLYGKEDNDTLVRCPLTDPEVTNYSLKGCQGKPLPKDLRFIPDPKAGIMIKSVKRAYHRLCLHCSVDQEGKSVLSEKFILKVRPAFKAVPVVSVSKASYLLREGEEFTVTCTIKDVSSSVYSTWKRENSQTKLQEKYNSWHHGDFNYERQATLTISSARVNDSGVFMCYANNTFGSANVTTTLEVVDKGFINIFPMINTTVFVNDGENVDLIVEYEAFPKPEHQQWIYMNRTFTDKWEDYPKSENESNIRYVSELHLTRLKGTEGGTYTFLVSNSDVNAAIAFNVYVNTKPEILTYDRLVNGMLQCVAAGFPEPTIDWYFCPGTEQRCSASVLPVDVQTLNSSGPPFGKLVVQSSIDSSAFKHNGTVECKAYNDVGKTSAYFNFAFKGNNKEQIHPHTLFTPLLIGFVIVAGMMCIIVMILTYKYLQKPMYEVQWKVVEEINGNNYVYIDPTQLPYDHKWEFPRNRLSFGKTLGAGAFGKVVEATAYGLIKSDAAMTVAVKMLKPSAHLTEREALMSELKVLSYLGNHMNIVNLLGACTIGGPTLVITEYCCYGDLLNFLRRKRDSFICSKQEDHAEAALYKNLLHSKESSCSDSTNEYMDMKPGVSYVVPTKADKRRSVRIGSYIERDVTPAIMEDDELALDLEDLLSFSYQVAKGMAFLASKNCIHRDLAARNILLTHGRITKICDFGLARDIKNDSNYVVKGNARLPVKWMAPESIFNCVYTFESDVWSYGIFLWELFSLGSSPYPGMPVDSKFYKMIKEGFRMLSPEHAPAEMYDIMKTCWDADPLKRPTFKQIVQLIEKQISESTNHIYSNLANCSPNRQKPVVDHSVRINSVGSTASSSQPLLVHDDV
Protocol: as §1

SMILES	IC50 (FLT3 [3])	IC50 (KIT [5])	Selectivity KIT/JH2 V617F (KIT [1])	Selectivity FLT3/JH2 V617F (FLT3 [2])	h-IntCL [4]
COc1nn(C)cc1-c1[nH]c2ncc3c(c2c1-c1ccc2c(cnn2C)c1)n(C1CCOCC1)c(=O)n3C [Comparative Example A, reference compound]	250 to 1250 nM	–	* (* refers to selectivity of ≤500-fold)	* (* refers to selectivity of ≤500-fold)	‡ ‡ ‡ (‡ ‡ ‡ refers to h-IntCL of >1 L/h/kg)
COc1ccc(-c2c(-c3cnn(Cc4ccncc4)c3)[nH]c3ncc4c(c23)n(C2CCCC2)c(=O)n4C)cc1 [Comparative Example D, reference compound]	–	–	–	–	‡ ‡ ‡ (‡ ‡ ‡ refers to h-IntCL of >1 L/h/kg)
COc1nn(C)cc1-c1[nH]c2ncc3c(c2c1-c1ccc2c(cnn2C)c1)n([C@H]1CC[C@@H](CC#N)CC1)c(=O)n3C [Comparative Example E, reference compound]	–	–	*** (*** refers to selectivity of >1500-fold to ≤1750-fold)	* (* refers to selectivity of ≤500-fold)	‡ ‡ ‡ (‡ ‡ ‡ refers to h-IntCL of >1 L/h/kg)

More lines, main results first:

IC50 (FLT3 [3])	IC50 (KIT [5])	SMILES	Selectivity KIT/JH2 V617F (KIT [1])	Selectivity FLT3/JH2 V617F (FLT3 [2])	h-IntCL [4]
250 to 1250 nM	1250 to 2500 nM	[2H]C([2H])([2H])n1ncc2cc(-c3c(-c4cn(C)nc4OC)[nH]c4ncc5c(c34)n(C3CCOCC3)c(=O)n5C)ccc21 [Comparative Example B, reference compound]	** (** refers to selectivity of >500-fold to ≤1500-fold)	* (* refers to selectivity of ≤500-fold)	‡ ‡ (‡ ‡ refers to h-IntCL of ≥0.7 L/h/kg to ≤1 L/h/kg)
≤ 25 nM	25 to 250 nM	Cn1cc(-c2[nH]c3ncc4c(c3c2-c2ccc3c(cnn3C)c2)n([C@H]2CC[C@@H](CC#N)CC2)c(=O)n4C)cn1 [Comparative Example C, reference compound]	* (* refers to selectivity of ≤500-fold)	* (* refers to selectivity of ≤500-fold)	‡ ‡ ‡ (‡ ‡ ‡ refers to h-IntCL of >1 L/h/kg)
